Assay results reported in paper PMC10224356, “Trisubstituted 1,3,5-Triazines as Histamine H4 Receptor Antagonists with Promising Activity In Vivo” (Molecules, 2023).
“Also recorded” adds a separate entry of the source.

Columns and labels:
[1] = target: T1, human histamine H4 receptor (Homo sapiens, UniProt Q9H3N8); assay: [3H]histamine displacement assay, membranes of Sf9 cells expressing hH4R with Gαi2 and Gβ1γ2; format: binding; conditions: Sf9 membranes, mean within 95% CI
T1 construct: made in house; host or cells: Sf9 cells (membrane preparations)
T1 sequence (Q9H3N8 whole entry): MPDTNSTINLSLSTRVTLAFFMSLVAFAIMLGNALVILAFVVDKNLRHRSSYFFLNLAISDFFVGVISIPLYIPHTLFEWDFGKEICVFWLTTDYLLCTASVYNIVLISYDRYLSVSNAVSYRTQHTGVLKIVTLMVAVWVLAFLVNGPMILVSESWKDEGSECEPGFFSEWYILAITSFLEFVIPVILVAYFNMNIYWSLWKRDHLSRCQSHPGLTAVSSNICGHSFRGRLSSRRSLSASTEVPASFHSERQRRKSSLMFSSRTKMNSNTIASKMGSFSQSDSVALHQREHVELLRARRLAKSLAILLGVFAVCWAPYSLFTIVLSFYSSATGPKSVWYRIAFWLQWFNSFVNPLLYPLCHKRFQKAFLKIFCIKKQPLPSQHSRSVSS
Experimental: The affinity of compounds 2–20 for hH4R was evaluated in a binding assay as previously described. [^3H]Histamine was used as a radioligand and hH4R was expressed in Sf9 cells with G protein Gαi2 and Gβ1γ2 subunits. The pharmacological results represented as Ki values are listed in Table 1 (for alicyclic derivatives) and Table 2 (for aliphatic derivatives). […] Results depended on the substituent in the four positions of a triazine (a main structure).
Affinities of all triazine derivatives were determined in a [^3H] histamine (f.c. 10 nM) displacement assay using membrane preparations from Sf9 cells expressing human H4R and co-expressed with Gαi2 and Gβ1γ2 subunits as described previously. Nonspecific binding was determined in the presence of unlabelled JNJ7777120 ([…]).

[2] = PAMPA assay (blood-brain barrier permeability); format: in vitro ADME
Experimental: This test is a popular method for estimating the possibility of crossing BBB through passive transport. […] Caffeine was used as a standard well-permeable compound.
The Gentest^TM PAMPA Plate System, purchased from Corning (Tewksbury, MA, USA), was used for permeability evaluation. Caffeine (a reference) and the compound tested were dissolved in DMSO (10 mM stocks) and after dilution to 200 μM in PBS (pH 7.4), added to donor wells. Then, after incubation for 5 h at room temperature, concentrations of tested compounds in donor and acceptor wells were estimated by the mass spectra (LC/MS) method as described previously. The UPLC/MS Waters […] TQD system with the TQ Detector (Waters, Milford, CT, USA) was used for this detection. The assay was performed in triplicate. The permeability value (Pe) was calculated using the formula described by Chen et al..

HepG2 cells = assay: Toxicity evaluation, MTS assay in HepG2 cells; format: cell-based, human
Excerpt: (§1) Toxic substances can affect the cells. Early in the research process, it is crucial to determine whether obtained compounds can induce such effects. From our series of compounds, compound 6 was selected for toxicity evaluation. MTS assay was used to test toxicity on HepG2 and SH-SY5Y cell lines. HepG2 cells closely reflect the human liver cell model whereas SH-SY5Y neuroblastoma cells are used in models of neurodegenerative diseases (especially Parkinson’s disease) to study the cellular and molecular factors that lead to these disorders.
(§2) Compound 6, at concentrations ranging from 0.78 µM to 50 µM, was incubated with the respective cell lines for 48 h (HepG2) or 24 h (SH-SY5Y). Then, MTS reagent was added and absorbances at 490 nm were read after 1 h. […] The reduction in SH-SY5Y cell viability (Figure 6B) of an average of 4–12% was observed over the range of concentrations.
The hepatoma cell line HepG2 (ATCC® HB-8065TM) and SH-SY5Y CRL-2266 neuroblastoma cell line were used to evaluate the toxicity of tested compounds. Tests were conducted as described previously. CellTiter 96® Aqueous Non-Radioactive Cell Proliferation Assay was purchased from Promega (Madison, WI, USA). Compounds were tested at 7 concentrations (0.78, 1.56, 3.125, 6.25, 12.5, 25 and 50 µM). Cell viability was determined after incubation with compounds for […]. […]

SH-SY5Y cells = assay: Toxicity evaluation, MTS assay in SH-SY5Y cells; format: cell-based, human
Excerpt: as §1, §2
The hepatoma cell line HepG2 (ATCC® HB-8065TM) and SH-SY5Y CRL-2266 neuroblastoma cell line were used to evaluate the toxicity of tested compounds. Tests were conducted as described previously. CellTiter 96® Aqueous Non-Radioactive Cell Proliferation Assay was purchased from Promega (Madison, WI, USA). Compounds were tested at 7 concentrations (0.78, 1.56, 3.125, 6.25, 12.5, 25 and 50 µM). Cell viability was determined after incubation with compounds for […]. Each experiment was performed twice in triplicate.

H1R = H1R (Homo sapiens, UniProt P35367); assay: Preliminary study at H1R
Chain of H1R (P35367 whole entry, species assumed): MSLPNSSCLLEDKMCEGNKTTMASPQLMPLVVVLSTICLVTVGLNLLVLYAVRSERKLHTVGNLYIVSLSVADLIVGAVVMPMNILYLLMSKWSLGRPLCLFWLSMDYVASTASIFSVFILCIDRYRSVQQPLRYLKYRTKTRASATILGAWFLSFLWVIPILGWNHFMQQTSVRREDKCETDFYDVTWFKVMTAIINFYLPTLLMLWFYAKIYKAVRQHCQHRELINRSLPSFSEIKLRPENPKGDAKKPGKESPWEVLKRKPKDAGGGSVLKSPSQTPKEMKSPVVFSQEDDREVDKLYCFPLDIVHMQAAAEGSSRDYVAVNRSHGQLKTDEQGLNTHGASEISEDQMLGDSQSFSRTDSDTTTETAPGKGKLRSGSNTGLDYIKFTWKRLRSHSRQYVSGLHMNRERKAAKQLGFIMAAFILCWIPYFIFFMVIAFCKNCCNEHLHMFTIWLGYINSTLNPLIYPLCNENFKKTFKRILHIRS

hH4R = hH4R (Homo sapiens, UniProt Q9H3N8); assay: β-arrestin recruitment assay (LiveBLAzer, Tango-H4-bla U2OS cells); format: cell-based; design: expressed in transfected cells; host or cells: Tango-H4-bla U2OS cells
Chain of hH4R (Q9H3N8 whole entry): as the sequence (Q9H3N8 whole entry) above
Experimental: Compounds were tested using LiveBLAzer^TM assay and Tango-H4-bla U2OS cells, allowing the estimation of the percentage of β-arrestin recruitment in response to tested treatments.
All used media and reagents except DMSO and tested compounds were purchased from ThermoFisher Scientific, Waltham, MA, USA. DMSO was from CarlRoth (Karlsruhe, Germany) and histamine was from Sigma Aldrich (Darmstadt, Germany). […] The day before the experiment cells were collected from the culture flask with trypsin and seeded in 384 well black-wall, clear-bottom plate (PerkinElmer, Waltham, MA, USA) in concentration 10,000 cells/well in FreeStyle medium. After 24 h of incubation, the cells were checked under the microscope and the dilutions of tested compounds were prepared and added to the wells. In agonist mode compounds were added to the wells and plates were placed in the incubator (HERAcell240, Heraeus, Hanau, Germany) for 16 h. In antagonist mode, first, the compounds were added to the wells, plates were incubated for 30 min, then histamine solution (corresponding to EC80—500 nM) was added and plates were put in the incubator for 16 h. After this time β-lactamase substrate mixture was prepared and added to wells (8 µL/well). Cells were incubated for 2 h at room temperature in the dark then the signal was read using an EnSpire microplate reader (PerkinElmer, Waltham, MA, USA). Drawing of dose-dependent curves and IC50 calculation for compounds were made using GraphPad Prism 6 (GraphPad Software, San Diego, CA, USA).

[3] = even at the highest concentration (50 µM)

SMILES: CN1CCN(c2nc(N)nc(CC3CCCC3)n2)CC1 [Compound 6, 4-(Cyclopentylmethyl)-6-(4-methylpiperazin-1-yl)-1,3,5-triazin-2-amine]
- Ki [1]: 63 nM
- Mass Retention (R) ([2]; 200 µM, 5 h): 3.15%
- Papp at 5 h, 200 µM ([2]; PBS pH 7.4, permeable if Pe > 1.5 × 10^−6 cm/s, read-out: Pe (permeability coefficient) ± SD): 12.3 ± 0.31 ×10⁻⁶ cm/s
- Toxicity in HepG2 cells (MTS) (HepG2 cells; 0.78–50 µM, 48 h incubation): no toxicity up to 50 µM; also recorded: did not show significant toxicity in the tested concentration range (except for 6.25 µM concentration)
- Reduction of HepG2 cell viability (HepG2 cells; [3]): ≤ 50%
- Reduction in SH-SY5Y cell viability, average over the range of concentrations (SH-SY5Y cells; 0.78–50 µM): 4–12%
- Toxicity in SH-SY5Y cells (MTS) (SH-SY5Y cells; 0.78–50 µM, 24 h incubation): no toxicity up to 50 µM
- Reduction of SH-SY5Y cell viability (SH-SY5Y cells; [3]): ≤ 50%
- H1R activity at 10 µM (H1R): 0%
- melting point: 165 to 168 °C
- IC50 (hH4R; antagonist mode, histamine 500 nM (EC80), Tango-H4-bla U2OS cells, read-out: β-arrestin hH4R IC50 ± SEM): 10 ± 1 nM
- β-arrestin hH4R % of max. Antagonist Activity at 10 µM (hH4R; at 10 µM, antagonist mode): 101%
- Kb (hH4R; calculated from IC50 by Leff–Dougall variant of Cheng–Prusoff equation, read-out: pKb β-arrestin ± SEM (converted)): 1.62 nM
